According to US10000500B2 (PROMEGA CORPORATION, priority 2016, dated 2018):

Biological target: NANOLUC® Luciferase (Oplophorus gracilirostris, UniProt Q9GV45, A31E/A60N/A81I/F95D/I117V/K70R/L54V/L99Q/M102K/N193R/P142E/Q151K/Q38R/Q45L/V71I/Y165I)
Experiment: Km and Vmax substrate titration with NanoLuc luciferase (Example 8)
Type: biochemical
Conditions: NanoLuc 4 ng/ml; Renilla Glo buffer; Michaelis-Menten fit
Protocol: Each compound to be screened was diluted to a concentration of 100 uM in Renilla Glo Luciferase Assay buffer (Promega Corporation) and then further diluted to 2×serial dilution in Renilla Glo Luciferase Assay Buffer. NANOLUC® luciferase and Renilla luciferase were diluted to a concentration of 4 ng/ml in OptiMEM+0.1% FBS. 50 ul of each compound dilution was then mixed with 50 ul of each enzyme dilution and incubated for 1 minute at room temperature. Light output for each compound was measured on a GLOMAX®-Multi+ luminometer. Km and Vmax were calculated for each enzyme/substrate combination using a GraphPad Prism Michaelis-Menten non-linear fit (FIGS. 1A-ID).

NANOLUC® Luciferase, sequence (Q9GV45 28-196 with tags or gaps with the stated changes limits assumed): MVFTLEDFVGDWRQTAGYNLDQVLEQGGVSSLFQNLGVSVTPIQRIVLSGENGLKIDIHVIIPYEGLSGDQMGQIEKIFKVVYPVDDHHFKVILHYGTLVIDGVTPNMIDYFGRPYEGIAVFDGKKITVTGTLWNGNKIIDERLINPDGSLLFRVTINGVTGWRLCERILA

Question: `O=c1c(Cc2ccco2)nc2c(Cc3ccccc3)[nH]c(-c3ccccc3)cn1-2` [Furimazine, 8-benzyl-2-(furan-2-ylmethyl)-6-phenylimidazo[1,2-a]pyrazin-3(7H)-one] was tested. Which Km did it give?
Answer: 9.37 µM
